Tests used:
[1] = QWBA and plasma radioactivity after oral 14C-Vuti in rats; format: in vivo, Sprague-Dawley rat; settings: abstract statement; species not stated there
Description: Male 8-week-old Sprague Dawley rats (n = 5, 16 h fasted; Charles River Laboratories Japan Inc., Yokohama, Japan) were orally administered 10 mg/kg of ^14C-Vuti (equivalent to radioactivity of 3.7 MBq/kg, Glaceum Inc., Suwon, Korea). After 2, 6, and 24 h, each rat was euthanized by CO2 inhalation. The nasal cavity and anus were filled with 4% w/v sodium carboxymethyl cellulose, and the carcass was frozen in a dry ice-acetone mixture. […] The radioactivity was measured by the bio-imaging analyzer system (FUJIX-BAS2500, Fujifilm, Tokyo, Japan; resolution µm, gradation 256, sensitivity 10000, latitude 4), in which the radioactivity in organs was converted to the photo-stimulated luminescence per unit area (PSL/mm^2) minus the background radioactivity of the plastic standard samples. Tissue radioactivity in whole-body auto-radiograms was quantified by densitometry using an MCID image analysis software (v. 7.0, MCID Image Analysis Software Solutions for Life Sciences, Cambridge, UK). Radioactivity concentrations were expressed as ng equivalents of ^14C-Vuti per gram tissue (ng eq/g tissue). […]
For measuring the radioactive concentration in the plasma, blood (250 uL) was collected from the tail vein of the animals (n = 3) of the exact same conditions as the animals used for QWBA assay. […] Then the tissue to blood ratio was calculated. […]

[2] = system: AAV-A53T injected C57BL/6J mice; experiment: AAV-α-syn A53T-injected mouse model; format: in vivo
Description: Male C57BL/6J mice (7 week-age-old) were used for inducing the α-syn A53T model and treating Vuti and vehicle. All mice were maintained in a specific pathogen-free animal facility under a 12:12-h light-dark cycle (lights on at 8:00 AM) at a temperature of 21℃ and allowed ad libitum access to food and water. All experiments and animal care were performed in accordance with the guidelines of the Institutional Animal Care and Use Committee (IACUC) of IBS, Daejeon, South Korea (IBS-IBC-2022-12). Mice were anesthetized under isoflurane anesthesia (induction: 3%–4%, maintenance: 1.5%–2%) and placed into stereotaxic (RWD, China). For establishing the α-syn A53T mouse model, 2µL of AAV-CMV-A53T-Asyn or AAV-CMV-EGFP (5 × 10^12 genomic copies/mL, packaged by the IBS virus facility) was injected into the SNpc (AP − 3.2 mm, ML ± 1.3 mm, DV − 4.0 mm relative to the bregma; 0.2µL/min) bilaterally. Oral administration of 50 mg/kg Vuti (Vuti 50) or the vehicle (Veh) was started 5 weeks after the virus injection, once a day for 12 weeks. Mice were used for behavior tests and immunostaining after completing drug treatment. Vertical grid test was performed as described before. For 5 days, mice were allowed for habituation in the test room. Prior to the trial session, the mice were acclimated to the vertical grid for 2 days. For the experiment, individual mice were gently placed 3 cm from the top, facing upward, and allowed to turn around and climb down. […] Starting from the fourth week after the injection, trials are conducted at two-week intervals.
Mice were deeply anaesthetized with isoflurane and perfused transcranial with 0.9% saline ice-cold 4% paraformaldehyde (PFA). Excised brains were postfixed at 4 °C overnight and transferred to 30% sucrose for 48 h for dehydration. Coronal sections of 30 μm thickness (20 μm thickness for super-resolution imaging) were prepared in a cryostat and stored in a storage solution at 4 °C. Brain tissues were washed in PBS and incubated in a blocking solution (0.3% Triton X-100, 2% Donkey Serum, 2% Goat Serum in 0.1 M PBS). Primary antibodies were added to the blocking solution at desired dilution and the sections were incubated in a shaker at 4 °C overnight. Primary antibodies used for immunostaining were anti-TH (rabbit, 1:200, Pel-freez, P40101-150), GFAP (chicken, 1:500, Millipore, AB5541), Iba-1 (rabbit, 1:500, Wako, 019-19741), DDC (rabbit, 1:200, abCam, ab3905), GABA (guinea pig, 1:200, Millipore, AB175), anti-PON2 (rabbit, 1:200, abCam, ab183710). Unbound antibodies were washed off using PBS, followed by corresponding secondary antibody incubation (in blocking solution) for 1–2 h at room temperature. Unbound antibodies were washed with PBS and DAPI was added to PBS (1:1500 dilution). Sections were mounted with fluorescent mounting medium (Dako) and dried. A series of fluorescent images were obtained using Zeiss LSM900 confocal microscope. Super-resolution image for PON2 signals imaged by Zeiss Lattice SIM (Structure-illumination microscope) and all images were processed using ImageJ (Fiji) software.

Structure (SMILES): CCOc1ccc(C2COc3c(ccc4c3CCC(C)(C)O4)C2)c(O)c1 (stereo not drawn) [Vuti, Vutiglabridin]
- duration of presence in the brain [1]: over 24 h
- GFAP and Iba1 levels (astrocytes and microglia) ([2]; A53T mice, Vuti 50 mg/kg): normalization
- amount of GABA in astrocytes ([2]; A53T mice, Vuti 50 mg/kg): decrease
- intracellular α-syn levels ([2]; A53T mice, Vuti 50 mg/kg): decreased
- step failure in the vertical grid test ([2]; A53T mice, Vuti 50 mg/kg oral from week 5, within 5 to 7 weeks of administration (weeks 10-12)): statistically significant improvements
- DDC-positive cells in SNpc ([2]; A53T mice, Vuti 50 mg/kg, 12 weeks after AAV-A53T injection): significantly increased
- TH-positive cells in SNpc ([2]; A53T mice, Vuti 50 mg/kg, 12 weeks after AAV-A53T injection, vs vehicle): significant increase
- PON2 protein level ([2]; A53T mouse model and WT + Vuti group, IHC and Western blot): remained unchanged
- TH+/DDC+ ratio ([2]; α-syn A53T overexpressed PD model): doubled

Reference: PMC12535076, “Neurotherapeutic effects of Vutiglabridin as a Paraoxonase-2 modulator in preclinical models of Parkinson’s disease” (Molecular Neurodegeneration, 2025)
